According to patent publication US10463618B2, “Nanoemulsions” (The University of Liverpool, priority 2015, dated 2019):

Tests used:
[1] = Solubility of drug in castor oil; type: physicochemical
Protocol: Non-limiting examples of some suitable drugs include for example the antiretroviral drugs Lopinavir (LPV) and Efavirenz (EFV), and the antibiotics Rifampicin and Erythromycin. Practically, approximately 50 mg/ml Efavirenz or 25 mg/ml Lopinavir can be dissolved in castor oil. Stock solutions of drug dissolved in castor oil were produced (50 mg/ml of Efavirenz in castor oil, or 25 mg/ml of Lopinavir in the same oil).

extrinsic pathway = assay: Plasma coagulation: prothrombin time (PT); design: species or system Human; conditions: 37° C., 30 minutes, 0.16-40 μg/mL
Protocol: (§1) The impact of nanoemulsion formulations on plasma coagulation was also assessed. Human blood from three donors was collected by venepuncture into tubes anti-coagulated with sodium citrate; blood was used within one hour of collection. Test plasma was prepared by centrifuging blood at 2500×g, at 21° C., for 10 minutes with the resultant plasma collected and pooled. Pooled plasma was stable at room temperature for 8 hours. Nanoemulsion samples were prepared at 10× the required final concentration to accommodate dilution when added to test plasma. Concentrations and subsequent dilutions were based on the concentration of Efavirenz contained within the samples with dilutions of blank nanoemulsion diluted in the same fashion. Final concentrations tested were 40 μg/mL, 4 μg/mL, 0.8 μg/mL and 0.16 μg/mL. […]
(§2) Cuvettes were placed into A, B, C and D test rows on the coagulometer and one metal ball added into each cuvette (warmed for at least 3 minutes prior to use). […] Once incubation time was complete coagulation reagent was added to each cuvette and coagulation time recorded. Percentage coefficient of variation was calculated for each control and test samples according to the following formula: % CV=SD/Mean×100%. […] Data was expressed as a percentage of the coagulation time recorded for plasma with no nanomaterial present (plasma only control).

final common pathway = assay: Plasma coagulation: thrombin time (TT); design: species or system Human; conditions: 37° C., 30 minutes, 0.16-40 μg/mL
Protocol: as §1, §2

intrinsic pathway = assay: Plasma coagulation: activated partial thromboplastin time (APTT); design: species or system Human
Protocol: as §1, §2

[2] = Transcellular permeation assay (Caco-2 transwell); type: in vitro ADME; conditions: human
Protocol: (§3) Caco-2 cells were seeded at a density of 35,000 cells per well in the apical chamber of a 24 well Corning® HTS® transwell plate, and left to adhere for 24 hours. After this time, culture media was replenished by removal with an aspirator, also removing those cells that had not adhered. Culture media used was DMEM supplemented with 15% fetal bovine serum, which was continually replenished every other day for a three-week period.
(§4) In different wells the apical or basolateral chambers (donor chambers) were loaded with drug or nanoemulsion containing media, with the opposite chambers (acceptor chambers) of those wells being filled with fresh drug-free media. Samples were taken from both apical and basolateral chambers from all wells at 1, 2, and 24 hour time periods. Samples were then immediately frozen at −40° C. for subsequent batch analysis via high performance liquid chromatography to determine the concentration of the drug in the sample.
(§5) The apparent permeability (Papp) was calculated using the following equation: Papp=((A/T)*(V))/(S*0.3).
(§6) Where A is the concentration in the sample, T is the time in seconds at which the sample was collected, V is the total volume of sample contained in the chamber being sampled, S is the initial starting concentration of the drug and 0.3 is the surface area in cm^2 of the transwell insert on which the Caco-2 cells are grown.

Caco-2 cells = assay: Transcellular permeation assay (Caco-2 transwell); type: in vitro ADME; conditions: 10 μM
Protocol: as §3, §4, §5, §6

[3] = Caco-2, 2 hours, read-out: Papp apical to basolateral

| Compound | amount that can be dissolved in castor oil [1] | impact on prothrombin time (PT) (extrinsic pathway) | impact on thrombin time (TT) (final common pathway) | impact on APTT coagulation time (intrinsic pathway) | Papp A→B at 2 h, 10 μM [2, 3] | Papp A→B at 24 h, 10 μM ([2]; Caco-2, 24 hours, read-out: Papp apical to basolateral) | Papp basolateral to apical (Caco-2 cells; 1 hour) | Papp basolateral to apical (Caco-2 cells; 2 hours) | Papp A→B at 1 h, 10 μM ([2]; Caco-2, 1 hour, read-out: Papp apical to basolateral) | Papp B→A at 1 h, 10 μM ([2]; Caco-2, 1 hour, read-out: Papp basolateral to apical) | Papp B→A at 2 h, 10 μM ([2]; Caco-2, 2 hours, read-out: Papp basolateral to apical) |
| --- | --- | --- | --- | --- | --- | --- | --- | --- | --- | --- | --- |
| O=C1Nc2ccc(Cl)cc2[C@@](C#CC2CC2)(C(F)(F)F)O1 [Efavirenz] | approximately 50 mg/ml | No impact | No impact | did not impact on coagulation time at all | 8.2 ×10⁻⁶ cm/s | 0.7 ×10⁻⁶ cm/s | increased compared to EFV nanoemulsion | increased compared to EFV nanoemulsion | – | – | – |
| Cc1cccc(C)c1OCC(=O)N[C@@H](Cc1ccccc1)[C@@H](O)C[C@H](Cc1ccccc1)NC(=O)[C@H](C(C)C)N1CCCNC1=O [Lopinavir] | ~25 mg/mL | – | – | – | 2.7 ×10⁻⁶ cm/s | – | – | – | 8.4 ×10⁻⁶ cm/s | 9.3 ×10⁻⁶ cm/s | 13 ×10⁻⁶ cm/s |
